Where two headings read alike, the source gives them in different places.
Tested on: Brown Planthoppers (Nilaparvata lugens)
Experiment: Effect against brown planthoppers (foliar spray on rice seedlings)
Type: in vivo
Details: for mortality at 500 µg/mL: Nilaparvata lugens, foliar, 168 h, read-out: % Mortality after 7 days
Method: Effect Against Brown Planthoppers (Nilaparvata lugens)
An emulsifiable concentrate of the compound of the invention, prepared in the same manner as Example 112 below, was diluted with water to a concentration of 500 ppm and sprayed over the stems and leaves of rice seedlings in the 2-leaf stage at the rate of 10 ml per paper pot. Water was put in test tubes and the treated rice seedlings were placed therein. Then, 10 brown planthopper larvae were released in each tube, which was then capped with an aluminum cap. The test tubes were maintained in an incubator at 25° C. and the dead insects were counted 7 days after release. The % mortality was calculated using the following formula. [formula]

[1] = emulsifiable concentrate diluted with water to 500 ppm, sprayed on rice seedlings (2-leaf stage), 10 ml per paper pot, 10 larvae per tube, 25° C., dead insects counted 7 days after release

Row | SMILES | mortality at 500 µg/mL | % Mortality after 7 days [1] | further results
1 | CNC(=C[N+](=O)[O-])NCc1cccnc1 [Compound 3, 1-Methylamino-1-(3-pyridylmethyl)amino-2-nitroethylene] | 100% |  | 
2 | CCNC(=C[N+](=O)[O-])NCc1cccnc1 [Compound 4, 1-Ethylamino-1-(3-pyridylmethyl)amino-2-nitroethylene] | 100% |  | 
3 | C=CCNC(=C[N+](=O)[O-])NCc1cccnc1 [Compound 7, 1-Allylamino-1-(3-pyridylmethyl)amino-2-nitroethylene] |  |  | mortality at 500 µg/mL [1]: 100%
4 | CN(C)CCNC(=C[N+](=O)[O-])NCc1cccnc1 [Compound 12, 1-(2-Dimethylaminoethyl)amino-1-(3-pyridylmethyl)amino-2-nitroethylene] |  |  | mortality at 500 µg/mL [1]: 100%
5 | COCCNC(=C[N+](=O)[O-])NCc1cccnc1 [Compound 14, 1-(2-Methoxyethyl)amino-1-(3-pyridylmetyl)amino-2-nitroethylene] |  | 100% | 
6 | C[Si](C)(C)CNC(=C[N+](=O)[O-])NCc1cccnc1 [Compound 17, 1-(3-Pyridylmethyl)amino-1-(trimethylsilylmethyl)amino-2-nitroethylene] | 100% |  | 
7 | NNC(=C[N+](=O)[O-])NCc1cccnc1 [Compound 18, 1-Hydrazino-1-(3-pyridylmethyl)amino-2-nitroethylene] | 100% |  | 
8 | CN(C)C(=C[N+](=O)[O-])NCc1cccnc1 [Compound 19, 1-Dimethylamino-1-(3-pyridylmethyl)amino-2-nitroethylene] | 100% |  | 
9 | O=[N+]([O-])C=C(NCc1cccnc1)N1CCCC1 [Compound 20, 1-(3-Pyridylmethyl)amino-1-pyrrolidino-2-nitroethylene] |  |  | mortality at 500 µg/mL [1]: 100%
10 | CN(C)NC(=C[N+](=O)[O-])NCc1cccnc1 [Compound 24, 1-(2,2-Dimethyl-1-hydrazino)-1-(3-pyridylmethyl)amino-2-nitroethylene] |  | 100% | 
11 | CN(Cc1cccnc1)C(N)=C[N+](=O)[O-] [Compound 25, 1-Amino-1-(N-methyl-N-3-pyridylmethyl)amino-2-nitroethylene] |  | 100% | 
12 | CNC(=C[N+](=O)[O-])N(C)Cc1cccnc1 [Compound 26, 1-Methylamino-1-(N-methyl-N-3-pyridylmethyl)amino-2-nitroethylene] |  | 100% | 
13 | CNC(=C[N+](=O)[O-])NCc1ccc(Cl)nc1 [Compound 28, 1-(6-Chloro-3-pyridylmethyl)amino-1-methylamino-2-nitroethylene] | 100% |  | 
14 | CNC(=C[N+](=O)[O-])N(C)Cc1ccc(Cl)nc1 [Compound 29, 1-[N-(6-Chloro-3-pyridylmethyl)-N-methyl]amino-1-methylamino-2-nitroethylene] |  | 100% | 
15 | CCN(Cc1cccnc1)C(=C[N+](=O)[O-])NC [Compound 31, 1-[N-Ethyl-N-(3-pyridylmethyl)]amino-1-methylamino-2-nitroethylene] |  | 100% | 
16 | CNC(=C[N+](=O)[O-])N(Cc1cccnc1)CC(OC)OC [Compound 32, 1-[N-(2-Dimethoxyethyl)-N-(3-pyridylmethyl)]amino-1-methylamino-2-nitroethylene] |  | 100% | 
17 | CCNC(=C[N+](=O)[O-])N(C)Cc1cccnc1 [Compound 33, 1-Ethylamino-1-[N-methyl-N-(3-pyridylmethy)]amino-2-nitroethylene] |  | 100% | 
18 | CCCCNC(=C[N+](=O)[O-])N(C)Cc1cccnc1 [Compound 34, 1-n-Butylamino-1-[N-methyl-N-(3-pyridylmethyl)]amino-2-nitroethylene] |  | 100% | 
19 | CNC(=C[N+](=O)[O-])N(CCOC)Cc1cccnc1 [Compound 35, 1-Methyl-amino-1-[N-(2-methoxyethyl)-N-(3-pyridylmethyl)]amino-2-nitroethylene] |  | 100% | 
20 | CC(C)NC(=C[N+](=O)[O-])N(C)Cc1cccnc1 [Compound 37, 1-iso-Propylamino-1-[N-methyl-N-(3-pyridylmethyl)]-amino-2-nitroethylene] |  | 100% | 
21 | CN(Cc1cccnc1)C(=C[N+](=O)[O-])NCc1ccccc1 [Compound 38, 1-Benzylamino-1-[N-methyl-N-(3-pyridylmethyl)l]amino-2-nitroethylene] |  | 100% | 
22 | CNC(=C[N+](=O)[O-])N(C)C(C)c1cccnc1 (stereo not shown) [Compound 40, 1-Metylamino-1-[N-methyl-N-[1-(3-pyridyl)ethyl]]amino-2-nitroethylene] |  | 100% | 
23 | CNC(=C[N+](=O)[O-])N(Cc1cccnc1)N(C)C [Compound 41, 1-[2,2-Dimethyl-1-(3-pyridylmethyl)]hydrazino-1-methylamino-2-nitroethylene] |  | 100% | 

Row | SMILES | mortality at 500 µg/mL | % Mortality after 7 days [1] | further results
24 | CCCN(Cc1cccnc1)C(=C[N+](=O)[O-])NC [Compound 42, 1-Methylamino-1-[N-(n-propyl)-N-(3-pyridylmethyl)]amino-2-nitroethylene] |  | 100% | 
25 | CCCCN(C(=C[N+](=O)[O-])NC)c1cccnc1 [Compound 43] |  | 100% | 
26 | CNC(=C[N+](=O)[O-])N(Cc1ccccc1)Cc1cccnc1 [Compound 44, 1-[N-Benzyl-N-(3-pyridylmethyl)]amino-1-methylamino-2-nitroethylene] |  | 100% | 
27 | CN(Cc1ccc(Cl)nc1)C(N)=C[N+](=O)[O-] [Compound 45, 1-Amino-1-[N-(6-chloro-3-pyridylmethyl)-N-methyl]-amino-2-nitroethylene] |  | 100% | 
28 | CN(C)C(=C[N+](=O)[O-])NCc1ccc(Cl)nc1 [Compound 46, 1-(6-Chloro-3-pyridylmethyl)amino-1-dimethylamino-2-nitroethylene] | 100% |  | 
29 | CNC(=C[N+](=O)[O-])NCc1ccc(Cl)nc1Cl [Compound 47, 1-(2,6-Dichloro-3-pyridylmethyl)amino-1-methylamino-2-nitroethylene] | 100% |  | 
30 | CC(C)N(Cc1ccc(Cl)nc1)C(N)=C[N+](=O)[O-] [Compound 49, 1-Amino-1-(N-(6-chloro-3-pyridylmethyl)-N-i-propyl]amino-2-nitroethylene] | 100% |  | 
31 | CCN(C)C(=C[N+](=O)[O-])NCc1ccc(Cl)nc1 [Compound 50, 1-(6-Chloro-3-pyridylmethyl)amino-1-(N-ethyl-N-methyl)amino-2-nitroethylene] | 100% |  | 
32 | NNC(=C[N+](=O)[O-])NCc1ccc(Cl)nc1 [Compound 51, 1-(6-Chloro-3-pyridylmethyl)amino-1-hydrazino-2-nitroethylene] | 100% |  | 
33 | CN(C)NC(=C[N+](=O)[O-])NCc1ccc(Cl)nc1 [Compound 52, 1-(6-Chloro-3-pyridylmethyl)amino-1-(2,2-dimethyl-1-hydrazino)-2-nitroethylene] | 100% |  | 
34 | CNC(=C[N+](=O)[O-])N(C)CCc1cccnc1 [Compound 55, 1-Methylamino-1-[N-methyl-N-[2-(3-pyridyl)ethyl]-amino]-2-nitroethylene] |  |  | mortality at 500 µg/mL [1]: 100%
35 | CN(Cc1cccnc1)C(=C[N+](=O)[O-])N(C)Cc1cccnc1 [Compound 57, 1,1-bis(N-methyl-N-3-pyridylmethyl)amino-2-nitroethylene] |  |  | mortality at 500 µg/mL [1]: 100%
36 | CN(C)C(=C[N+](=O)[O-])N(C)Cc1ccc(Cl)nc1 [Compound 58, 1-[N-(6-Chloro-3-pyridylmethyl)-N-methyl]amino-1-dimethylamino-2-nitroethylene] | 100% |  | 
37 | CCN(Cc1ccc(Cl)nc1)C(N)=C[N+](=O)[O-] [Compound 59, 1-Amino-1-[N-(6-chloro-3-pyridylmethyl)-N-ethyl]-amino-2-nitroethylene] | 100% |  | 
38 | CCN(Cc1ccc(Cl)nc1)C(=C[N+](=O)[O-])NC [Compound 60, 1-[N-(6-Chloro-3-pyridylmethyl)-N-ethyl]amino-1-methylamino-2-nitroethylene] |  | 100% | 
39 | CNC(=C[N+](=O)[O-])N(C)Cc1ccc(OC)nc1 [Compound 61, 1-[N-(6-Methoxy-3-pyridylmethyl)-N-methyl]amino-1-methylamino-2-nitroethylene] |  |  | mortality at 500 µg/mL [1]: 100%
40 | CNC(=C[N+](=O)[O-])N(C)Cc1ccncc1 [Compound 62, 1-Methylamino-1-[N-methyl-N-(4-pyridylmethyl)]-amino-2-nitroethylene] |  |  | mortality at 500 µg/mL [1]: 100%
41 | CNC(=C[N+](=O)[O-])N(Cc1cccnc1)OC [Compound 64, 1-[N-methoxy-N-(3-pyridylmethyl)]amino-1-methyl-amino-2-nitroethylene] |  |  | mortality at 500 µg/mL [1]: 100%
42 | CN(C=O)C(=C[N+](=O)[O-])N(C)Cc1cccnc1 [Compound 65, 1-(N-Formyl-N-methyl)amino-1-[N-methyl-N-(3-pyridyl-methyl)]amino-2-nitroethylene] |  |  | mortality at 500 µg/mL [1]: 100%
43 | COCCNC(=C[N+](=O)[O-])N(C)Cc1cccnc1 [Compound 67, 1-(2-Methoxyethyl)amino-1-[N-methyl-N-(3-pyridylmethyl)]amino-2-nitroethylene] |  |  | mortality at 500 µg/mL [1]: 100%
44 | CNC(=C[N+](=O)[O-])N(C)Cc1ccc(Cl)cc1 [Compound 68, 1-[N-(4-Chlorobenzyl)-N-methyl]amino-1-methylamino-2-nitroethylene] |  |  | mortality at 500 µg/mL [1]: 100%
45 | CNC(=C[N+](=O)[O-])NCc1ccc(Cl)cc1 [Compound 70, 1-(4-Chlorobenzyl)amino-1-methylamino-2-nitroethylene] |  |  | mortality at 500 µg/mL [1]: 100%
46 | CN(C)C(=C[N+](=O)[O-])NCc1ccc(Cl)cc1 [Compound 71, 1-(4-Chlorobenzyl)amino-1-dimethylamirxo-2-nitroethylene] |  |  | mortality at 500 µg/mL [1]: 100%
